Measurements published in US9676701B2, “Cyclopropylamine derivatives useful as LSD1 inhibitors” (Oryzon Genomics, S.A., priority 2010, dated 2017).
Counter-ions that a name gives are not always drawn. Like-named read-outs stand apart in the source and are kept apart here.

How the values were obtained:
[1] = target: Human recombinant LSD1 protein (Homo sapiens (Human), UniProt O60341); assay: biochemical
Description: The ability of the compounds of the invention to inhibit LSD1 can be tested as follows. Human recombinant LSD1 protein was purchased from BPS Bioscience Inc. In order to monitor LSD1 enzymatic activity and/or its inhibition rate by our inhibitor(s) of interest, di-methylated H3-K4 peptide (Millipore) was chosen as a substrate. The demethylase activity was estimated, under aerobic conditions, by measuring the release of H2O2 produced during the catalytic process, using the Amplex® Red peroxide/peroxidase-coupled assay kit (Invitrogen).
Within the experiment, each concentration of inhibitor was tested in triplicate. […] The enzymatic reactions were set up in a 50 mM sodium phosphate, pH 7.4 buffer. At the end of the incubation, Amplex® Red reagent and horseradish peroxidase (HPR) solution were added to the reaction according to the recommendations provided by the supplier (Invitrogen), and left to incubate for 30 extra minutes at room temperature in the dark. A 1 μM H2O2 solution was used as a control of the kit efficiency.
The Ki (IC50) of each inhibitor was estimated at half of the maximum activity.

MAO-A [2] = target: T1, MAO-A (Homo sapiens (Human), UniProt P21397); assay: biochemical
MAO-B = MAO-B (Homo sapiens (Human), UniProt P27338); assay: biochemical
MAO-A [3] = target: T1, MAO-A; conditions: read-out: MAO-A (Ki)

Chain of MAO-B (P27338 whole entry): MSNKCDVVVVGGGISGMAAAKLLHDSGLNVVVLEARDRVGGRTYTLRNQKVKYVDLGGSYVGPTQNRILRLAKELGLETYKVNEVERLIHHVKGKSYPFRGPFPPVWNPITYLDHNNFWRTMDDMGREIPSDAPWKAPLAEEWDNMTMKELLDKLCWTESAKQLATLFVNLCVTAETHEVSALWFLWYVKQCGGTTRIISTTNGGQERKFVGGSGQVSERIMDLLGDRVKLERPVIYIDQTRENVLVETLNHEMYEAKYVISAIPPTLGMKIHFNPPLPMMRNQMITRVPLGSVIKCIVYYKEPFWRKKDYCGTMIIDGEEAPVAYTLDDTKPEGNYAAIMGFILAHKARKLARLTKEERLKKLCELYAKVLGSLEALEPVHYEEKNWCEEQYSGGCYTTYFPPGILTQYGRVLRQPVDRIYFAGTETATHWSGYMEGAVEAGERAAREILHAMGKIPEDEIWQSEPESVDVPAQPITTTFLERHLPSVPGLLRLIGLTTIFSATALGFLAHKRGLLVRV
T1 sequence (P21397 whole entry): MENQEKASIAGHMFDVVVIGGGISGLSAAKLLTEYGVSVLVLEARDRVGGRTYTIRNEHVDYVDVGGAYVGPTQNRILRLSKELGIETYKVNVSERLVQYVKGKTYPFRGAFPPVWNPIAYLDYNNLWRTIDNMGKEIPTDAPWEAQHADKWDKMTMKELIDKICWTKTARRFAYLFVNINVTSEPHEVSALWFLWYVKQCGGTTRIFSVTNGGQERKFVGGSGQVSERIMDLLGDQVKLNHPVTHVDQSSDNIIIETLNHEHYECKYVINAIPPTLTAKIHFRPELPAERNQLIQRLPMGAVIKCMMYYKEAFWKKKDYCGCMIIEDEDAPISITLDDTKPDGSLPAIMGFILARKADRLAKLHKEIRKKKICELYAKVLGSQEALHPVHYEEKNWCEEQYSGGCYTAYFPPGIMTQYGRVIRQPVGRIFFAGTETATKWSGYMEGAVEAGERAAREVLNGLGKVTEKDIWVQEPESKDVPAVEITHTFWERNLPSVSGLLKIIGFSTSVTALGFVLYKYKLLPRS

SMILES	Ki [1]	Ki (MAO-A [2])	Ki (MAO-B)	Ki (MAO-A [3])
COc1ccc(-c2ccc([C@H]3C[C@@H]3N)cn2)cc1 (relative stereo) [Example 10, (trans)-2-(6-(4-methoxyphenyl)pyridin-3-yl)cyclopropanamine hydrochloride]	100 to 1000 nM	1000 to 40000 nM	1000 to 40000 nM	
N[C@H]1C[C@@H]1c1ccc(-c2ccc(Cl)cc2)nc1 (relative stereo) [Example 7, (trans)-2-(6-(4-chlorophenyl)pyridin-3-yl)cyclopropanamine hydrochloride]	100 to 1000 nM		100 to 1000 nM	1000 to 40000 nM
N[C@H]1C[C@@H]1c1ccc(-c2ccc(C(F)(F)F)cc2)nc1 (relative stereo) [Example 9, (trans)-2-(6-(4-(trifluoromethyl)phenyl)pyridin-3-yl)cyclopropanamine hydrochloride]	100 to 1000 nM		1 to 100 nM	1000 to 40000 nM
N[C@H]1C[C@@H]1c1ccc(-c2cc(Cl)cc(Cl)c2)nc1 (relative stereo) [Example 6, (Trans)-2-(6-(3,5-dichlorophenyl)pyridin-3-yl)cyclopropanamine hydrochloride]	100 to 1000 nM		100 to 1000 nM	1000 to 40000 nM
CS(=O)(=O)Nc1cc(Cl)cc(-c2ccc([C@H]3C[C@@H]3N)cc2)c1 (relative stereo) [Example 94, N-(4′-((trans)-2-aminocyclopropyl)-5-chloro-[1,1′-biphenyl]-3-yl)methanesulfonamide hydrochloride]	1 to 100 nM	100 to 1000 nM	100 to 1000 nM	
N[C@H]1C[C@@H]1c1ccc(-c2cccc(O)c2)s1 (relative stereo) [Example 113, 3-(5-((trans)-2-aminocyclopropyl)thiophen-2-yl)phenol trihydrochloride]	1 to 100 nM	100 to 1000 nM	100 to 1000 nM	
